pKd: −log10 of the molar value.

The values that follow come from publication PMC4066849 (Structure (London, England : 1993), 2014).

One assay addresses Drp1 (Mus musculus, UniProt Q8K1M6). Nature of the assay: GTP hydrolysis by purified Drp1. The assay is classed as biochemical.
Another assay addresses MiD51 (Mus musculus, UniProt Q8BGV8). In words: fluorescence anisotropy equilibrium titration. Format: binding. On the technique in general: Fluorescence polarisation rises when a labelled molecule tumbles more slowly, as on binding a larger partner.

MiD51, sequence (Q8BGV8 134-463): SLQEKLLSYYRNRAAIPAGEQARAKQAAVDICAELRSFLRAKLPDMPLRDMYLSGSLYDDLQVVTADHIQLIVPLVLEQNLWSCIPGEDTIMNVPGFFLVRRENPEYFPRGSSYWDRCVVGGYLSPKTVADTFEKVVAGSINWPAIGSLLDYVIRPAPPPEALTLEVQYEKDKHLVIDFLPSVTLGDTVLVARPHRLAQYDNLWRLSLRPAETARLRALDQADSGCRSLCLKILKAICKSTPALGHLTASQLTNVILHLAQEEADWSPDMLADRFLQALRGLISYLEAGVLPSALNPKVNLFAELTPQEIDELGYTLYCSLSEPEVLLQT
Drp1, sequence (Q8K1M6 whole entry): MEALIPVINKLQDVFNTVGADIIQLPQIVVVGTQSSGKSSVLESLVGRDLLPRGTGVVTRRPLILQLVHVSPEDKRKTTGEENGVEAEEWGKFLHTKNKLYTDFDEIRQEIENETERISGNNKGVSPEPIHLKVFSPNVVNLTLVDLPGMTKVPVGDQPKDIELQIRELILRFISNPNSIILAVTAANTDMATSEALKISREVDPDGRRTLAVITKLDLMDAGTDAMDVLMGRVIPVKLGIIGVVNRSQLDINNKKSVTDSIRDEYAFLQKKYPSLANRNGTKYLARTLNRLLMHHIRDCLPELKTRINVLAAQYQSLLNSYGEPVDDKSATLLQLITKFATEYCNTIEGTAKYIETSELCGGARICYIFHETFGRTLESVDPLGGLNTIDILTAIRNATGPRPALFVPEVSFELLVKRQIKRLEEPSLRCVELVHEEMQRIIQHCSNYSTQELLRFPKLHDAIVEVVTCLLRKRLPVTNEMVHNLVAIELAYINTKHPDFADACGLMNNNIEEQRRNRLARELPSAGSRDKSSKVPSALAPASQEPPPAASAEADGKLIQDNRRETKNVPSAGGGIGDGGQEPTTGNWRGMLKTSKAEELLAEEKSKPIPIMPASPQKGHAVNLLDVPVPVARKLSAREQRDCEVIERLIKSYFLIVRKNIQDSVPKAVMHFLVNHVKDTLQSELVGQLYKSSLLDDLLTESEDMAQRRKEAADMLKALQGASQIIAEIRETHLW

Take `Nc1nc2c(ncn2[C@@H]2O[C@H](COP(=O)(O)OP(=O)(O)OP(=O)(O)O)[C@@H](O)[C@H]2O)c(=O)[nH]1` [GTP]: the “GTP hydrolysis by purified Drp1 ([γ-32P]-GTP, thin-layer chromatography); abolis” value at Drp1 is ~ 1.5 molecules of GTP per minute.
Usually pKd stands for the Kd on a negative log10 scale, so that one unit is a factor of ten. On to `CNc1ccccc1C(=O)O[C@H]1[C@@H](O)[C@H](n2cnc3c(=O)[nH]c(N)nc32)O[C@@H]1COP(=O)(O)OP(=O)(O)O` [MANT-GDP], for which the pKd on MiD51 was 5.10.
